Consider twelve compounds from patent US20220169660A1, “CYCLIC AMINO-PYRAZINECARBOXAMIDE COMPOUNDS AND USES THEREOF” (SILVERBACK THERAPEUTICS, INC., priority 2019, published 2022).

Assay [1] relates to HEK293 SMAD2p luciferase reporter cells transfected to stably express full length human LRRC15. The experiment in a line: Cell reporter assay of anti-LRRC15 antibody drug conjugates (SMAD2p luciferase). The following applies: linker-payload conjugated to anti-LRRC15 antibody; human TGFβ1 1.6 ng/ml; absolute EC50. The class given is cell-based. The source says:
The linker payloads in Table 8 were covalently attached to an anti-LRRC15 antibody. The LRRC15 antibody is the murine M25 antibody or a humanized variant thereof (see PCT Application Publication No. WO 2017/095805, incorporated herein by reference in its entirety). Conjugation to the linker-payload is via the interchain disulfides. The antibodies have either a wild-type Fc domain or a null Fc domain. The Fcnull mutations for human IgG1 are L234A, L236A, G237A, and K322A and the Fcnull mutations for murine IgG2a are L234A, L236A, G237A, K322A, and P329G; numbering by EU index.
The resultant antibody drug conjugates were tested via a cell reporter assay. HEK293 SMAD2p luciferase reporter cells transfected to stably express full length human LRRC15 were seeded in 96 well plates at 40,000 cells/well in an assay media of MEM +0.5% FBS, 1% NEAA, 1% NaPyr & 1% Pen/Strep. Conjugates and controls were added to wells in a dose titration ranging from 500 nM to 0.03 nM. After 24 hours of culture at 37° C. in a 5% CO2 environment human TGFβ1 was added (PeproTech Inc.) to a final concentration of 1.6 ng/ml followed by an additional 18 hour of culture. Luciferase Steady Glo reagent (Promega Corporation) was added as recommended by manufacturer. After incubating 10 minutes with shaking, SMAD2p activity was determined by measuring luminescence with an Envision Plate Reader (Perkin-Elmer Inc.) and an absolute EC50 was determined using Prism Software v8.01 (GraphPad Inc.).

The subject of assay [2] is TGFβ/SMAD Singling Pathway SBE reporter cell line. The experiment in a line: TGFβ reporter assay (in vitro small molecule screening). The class given is cell-based. The following applies: SBE luciferase reporter cells, TGFβ stimulation, 18 h, luminescence. The method, then: TGFβ/SMAD Singling Pathway SBE reporter cell line was obtained from BPS Bioscience. Cells were passed, expanded, and stored in liquid nitrogen as per the supplier's instructions with the exception that growth media is changed to DMEM-C with Geneticin (DMEM supplemented with 10% fetal bovine serum, 1×NEAA, 1 mM Pyruvate, 2 mM glutamine, 50 μg/mL penicillin, 50 U/mL streptomycin and 400 μg/mL of Geneticin). The assay media was MEM supplemented with […] fetal bovine serum, 1×NEAA, 1 mM Pyruvate, 50 μg/mL penicillin and 50 U/mL streptomycin.
Test samples (at desired concentrations diluted in assay media) were added to a 96-well assay plate, 20 μL per well. Reporter cells were harvested from the tissue culture flasks by incubation in small quantity of PBS at 37° C. for two minutes after the media in the flask is removed and cells rinsed with PBS. Cells were counted and diluted in the assay media at approximately 0.5×10^6 cells/mL and then 80 μL/well of cells were added to the assay plate containing the 20 μL/well of test samples (or media only), and incubated for approximately 5-6 hours at 37° C. in a 5% CO2 humidified incubator. After that time, 15 μL of TGFβ diluted to 12 ng/mL in the assay media was added to the plate. Controls included TGFβ titration (from 50 to 0 ng/mL) without inhibitors, and media only (without cells, inhibitor or TGFβ). Plates were incubated at 37° C. in a 5% CO2 humidified incubator for 18 h. Luciferase substrate solution is subsequently added at 100 μL per well, incubated in the dark at room temperature for 15 min, and luminescence is measured using a luminometer. EC50 values and curve fits were obtained using Prism (GraphPad Software).
Background: In a reporter assay the amount or activity of a reporter protein is the signal.

The target in another assay is T1, TGFBR2 (Homo sapiens, UniProt P37173).
T1 construct: purchased Reaction Biology Corp
T1 sequence (P37173 23-567): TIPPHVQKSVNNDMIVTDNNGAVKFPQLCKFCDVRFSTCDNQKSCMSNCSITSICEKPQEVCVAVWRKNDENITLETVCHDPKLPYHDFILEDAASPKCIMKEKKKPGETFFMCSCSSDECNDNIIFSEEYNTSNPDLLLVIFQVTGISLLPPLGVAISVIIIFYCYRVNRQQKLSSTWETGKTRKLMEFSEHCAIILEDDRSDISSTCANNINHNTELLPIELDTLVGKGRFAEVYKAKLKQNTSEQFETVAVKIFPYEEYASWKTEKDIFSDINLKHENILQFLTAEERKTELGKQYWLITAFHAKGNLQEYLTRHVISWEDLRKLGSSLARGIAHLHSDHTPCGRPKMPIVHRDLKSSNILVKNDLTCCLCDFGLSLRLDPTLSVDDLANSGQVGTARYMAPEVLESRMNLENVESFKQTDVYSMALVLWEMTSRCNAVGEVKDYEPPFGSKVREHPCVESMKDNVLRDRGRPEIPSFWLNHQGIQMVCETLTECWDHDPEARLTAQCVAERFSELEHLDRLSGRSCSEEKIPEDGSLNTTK
The experiment in a line: TGFBR2 RBC enzyme assay (Reaction Biology Corp.). The class given is biochemical. The method, then:
Compounds of the disclosure were assayed by Reaction Biology Corp. using the TGFBR2 RBC enzyme assay.

In the case of `CC(C)[C@H](NC(=O)CCOCCOCCOCCOCCN1C(=O)C=CC1=O)C(=O)N[C@@H](CCCNC(N)=O)C(=O)Nc1ccc(COC(=O)NCCCOc2ccc3c(c2)-c2cnc(N)c(n2)C(=O)Nc2cnccc2N(C)CCO3)cc1` [Compound B-64], in assay [1], the EC50 (commonly the midpoint of the concentration-response curve) lay within 1 to 1000 nM.
Take `CC(C)[C@H](NC(=O)CCOCCOCCOCCOCCN1C(=O)C=CC1=O)C(=O)N[C@@H](CCCNC(N)=O)C(=O)Nc1ccc(COC(=O)NCCCCc2ccc3cc2CCCCN(C)c2ccncc2NC(=O)c2nc-3cnc2N)cc1` [Compound B-62]: the EC50 in assay [1] lay within 1 to 1000 nM.
On the same count and under the same terms, under “4-((S)-2-((S)-2-(6-(2,5-dioxo-2,5-dihydro-1H-pyrrol-1-yl)hexanamido)-3-methylbutanamido)-5-ureidopentanamido)benzyl (3-((2^5-amino-6-methyl-3-oxo-10-oxa-4,6-diaza-2(2,6)-pyrazina-5(3,4)-pyridina-1(1,3)-benzenacyclodecaphane-15-yl)oxy)propyl)carbamate [Compound B-16]” stands 1 to 1000 nM; under `CC(C)[C@H](NC(=O)CCOCCOCCOCCOCCN1C(=O)C=CC1=O)C(=O)N[C@@H](CCCNC(N)=O)C(=O)Nc1ccc(COC(=O)NCCCOc2ccc3cc2CCCCN(C)c2ccncc2NC(=O)c2nc-3cnc2N)cc1` [Compound B-63], 1 to 1000 nM.
As for `Nc1ncc2nc1C(=O)Nc1cnccc1N1CCC(CC1)COc1cccc-2c1` [Compound 22, 1^5-amino-3-oxa-7-aza-1(2,6)-pyrazina-6(4,3)-pyridina-5(4,1)-piperidina-2(1,3)-benzenacyclooctaphan-8-one], the EC50 is more than 5000 nM in assay [2] and more than 1000 nM on TGFBR2.
As to `CC(C)(C)OC(=O)N1C[C@@H]2C[C@@H]1COc1cccc(c1)-c1cnc(N)c(n1)C(=O)Nc1cnccc1O2` (racemic) [Compound 35, (±)-tert-butyl(5^2,5^4-trans)-1^5-amino-9-oxo-3,6-dioxa-8-aza-1(2,6)-pyrazina-7(4,3)-pyridina-5(2,4)-pyrrolidina-2(1,3)-benzenacyclononaphane-51-carboxylate], the results for the EC50 (in assay [2]; on TGFBR2) were more than 5000 nM and more than 1000 nM, respectively.
As to `Nc1ncc2nc1C(=O)Nc1cnccc1OC[C@@H]1C[C@H](CN1)Oc1cccc-2c1` (racemic) [Compound 40, (±)-(4^3,4^5-trans)-1^5-amino-3,6-dioxa-8-aza-1(2,6)-pyrazina-7(4,3)-pyridina-4(3,5)-pyrrolidina-2(1,3)-benzenacyclononaphan-9-one], the EC50 is 1000 to 5000 nM in assay [2] and more than 1000 nM at TGFBR2.
Take `CC(C)[C@H](NC(=O)CCOCCOCCOCCOCCN1C(=O)C=CC1=O)C(=O)N[C@@H](CCCNC(N)=O)C(=O)Nc1ccc(COC(=O)NCCCOc2ccc3cc2OCCCN(C)c2ccncc2NC(=O)c2nc-3cnc2N)cc1` [Compound B-61]: in assay [1], the EC50 fell in the range of 1 to 1000 nM.
As to `CC(C)[C@H](NC(=O)CCOCCOCCOCCOCCN1C(=O)C=CC1=O)C(=O)N[C@@H](CCCNC(N)=O)C(=O)Nc1ccc(COC(=O)NCCCOc2ccc3c(c2)OCCN(C)c2ccncc2NC(=O)c2nc-3cnc2N)cc1` [Compound B-65], the EC50 in assay [1] lay within 1 to 1000 nM.
Take `CN1CCCOc2cc(OCCCN)cc(c2)-c2cnc(N)c(n2)C(=O)Nc2cnccc21` [Compound 16, 2^5-amino-1^5-(3-aminopropoxy)-6-methyl-10-oxa-4,6-diaza-2(2,6)-pyrazina-5(3,4)-pyridina-1(1,3)-benzenacyclodecaphan-3-one]: the EC50 in assay [2] fell in the range of 1 to 1000 nM; on TGFBR2, 1 to 100 nM.
In the same order, the values of `CN1CCN(C)c2ccncc2NC(=O)c2nc(cnc2N)-c2ccc(OCCCN)c(c2)C1=O` [Compound 56, 2^5-amino-1^4-(3-aminopropoxy)-6,9-dimethyl-4,6,9-triaza-2(2,6)-pyrazina-5(3,4)-pyridina-1(1,3)-benzenacyclodecaphene-3,10-dione] are 1000 to 5000 nM and 1 to 100 nM.
Regarding `CN1CCCOc2cc(ccc2CCCCN)-c2cnc(N)c(n2)C(=O)Nc2cnccc21` [Compound 62, 2^5-amino-1^4-(4-aminobutyl)-6-methyl-10-oxa-4,6-diaza-2(2,6)-pyrazin-5(3,4)-pyridina-1(1,3)-benzenacyclodecaphan-3-one], the EC50 in assay [2] lay in the range of 1 to 1000 nM; at TGFBR2, 1 to 100 nM.
